According to the NIST ThermoML archive (doi:10.1021/je049895b):
Values joined by “and” are separate entries in the source; they are usually repeats but may differ in a detail not shown here. Equal entries are not always repeated.

Assays:
[1] = xn = mol fraction of the nth substance listed; conditions: 101.33 kPa, Liquid; for viscosity: Capillary tube (Ostwald / Ubbelohde) method
[2] = 101.33 kPa, Liquid; for viscosity: Capillary tube (Ostwald / Ubbelohde) method

CCOC(=O)OCC [diethyl carbonate] + C1CCCC1
[1], x1 = 1
Conditions	mass density [kg/m3]	speed of sound [m/s]	viscosity [mPa·s]
293.15 K	974.8	1197	0.809
298.15 K	969.21	1177	0.75
303.15 K	963.58	1156	0.702
308.15 K	957.93	1136	0.658
313.15 K	952.26	1116	0.618

COC(=O)OC [dimethyl carbonate] + C1CCCC1
[1], x1 = 1
Conditions	mass density [kg/m3]	speed of sound [m/s]	viscosity [mPa·s]
293.15 K	1069.9	1220	0.623
298.15 K	1063.33	1198	0.584
303.15 K	1056.71	1177	0.549
308.15 K	1050.07	1155	0.517
313.15 K	1043.39	1134	0.488

CC1CCCCC1 [methylcyclohexane] + CCOC(=O)OCC
[1], x2 = 0
Conditions	speed of sound [m/s]	viscosity [mPa·s]
293.15 K	1237	0.729
298.15 K	1215	0.681
303.15 K	1193	0.637
308.15 K	1172	0.598
313.15 K	1150	0.562

CCOC(=O)OCC [diethyl carbonate]
[2]
Conditions	mass density [kg/m3]	speed of sound	viscosity [mPa·s]
293.15 K	974.8	1197 m/s and 1198 m/s	0.809
298.15 K	969.21	1177 m/s	0.75
303.15 K	963.58	1156 m/s and 1157 m/s	0.702
308.15 K	957.93	1136 m/s	0.658
313.15 K	952.26	1116 m/s	0.618

C1CCCC1 [cyclopentane]
[2]
Conditions	mass density [kg/m3]	speed of sound [m/s]	viscosity [mPa·s]
293.15 K	744.43	1232	0.438
298.15 K	739.47	1206	0.415
303.15 K	734.47	1180	0.394
308.15 K	729.42	1154	0.374
313.15 K	724.32	1129	0.355

CC1CCCCC1 [methylcyclohexane]
[2]
Conditions	speed of sound [m/s]	viscosity [mPa·s]
293.15 K	1237	0.729
298.15 K	1215	0.681
303.15 K	1193	0.637
308.15 K	1172	0.598
313.15 K	1150	0.562

COC(=O)OC [dimethyl carbonate]
[2]
Conditions	mass density [kg/m3]	speed of sound [m/s]	viscosity [mPa·s]
293.15 K	1069.9	1220	0.623
298.15 K	1063.33	1198	0.584
303.15 K	1056.71	1177	0.549
308.15 K	1050.07	1155	0.517
313.15 K	1043.39	1134	0.488
